From ChEMBL document CHEMBL4483862, “Open-source discovery of chemical leads for next-generation chemoprotective antimalarials” (2018)

Tested on: Plasmodium berghei
Test: Luciferase/luciferin-expressing antifolate-resistant parasites were used to infect a culture of HepG2 cells that were pre-incubated with compounds. Infected hepatocytes emit light due to the luciferase reaction. Assay results are presented as the percent inhibition of light emission compared to control. […]
Type: functional
Conditions: sporozoite; for IC90: read-out: LUCIFERASE INFECTION ASSAY - IC90
[1] = read-out: LUCIFERASE INFECTION ASSAY - IC50

Row | SMILES | IC90 | IC50 [1] | also measured
1 | COc1ccc(C2=Cc3nc4ccccc4n3C3(C(F)(F)F)OC(c4ccccc4)=NN23)cc1 (stereo not drawn) | > 10 µM | – | IC50 (FFLUC_HILL_SLOPE 13.2, FFLUC_R_SQUARED 0.193, HEPG2TOX_HILL_SLOPE 11.1, HEPG2TOX_R_SQUARED 0.974, PBLUC_HILL_SLOPE 14.1, PBLUC_R_SQUARED 0.236, read-out: LUCIFERASE INFECTION ASSAY - IC50): 9.44 µM
2 | OC(c1ccc(Cl)cc1)c1nnc(Nc2ccc(Oc3ccccc3)cc2)s1 (stereo not drawn) | > 10 µM | – | IC50 (PBLUC_HILL_SLOPE 7.15, PBLUC_R_SQUARED 0.699, read-out: LUCIFERASE INFECTION ASSAY - IC50): 8.48 µM
3 | COc1ccc(OC)c(Cn2cc(Br)ccc2=O)c1 | > 10 µM | – | IC50 (HEPG2TOX_HILL_SLOPE 10.1, HEPG2TOX_R_SQUARED 0.0663, read-out: LUCIFERASE INFECTION ASSAY - IC50): > 10 µM
4 | O=C(Nc1ccc(F)cc1)OCCSc1ccc([N+](=O)[O-])c2nonc12 | > 8.72 µM | > 8.72 µM | –
5 | O=C(Nc1nc(-c2cccs2)cs1)c1c[nH]c(C(=O)N2CCCC2)c1 | > 10 µM | > 10 µM | –
6 | COc1ccc2[nH]cc(CCNC(=O)Nc3ccc(Cl)c(Cl)c3)c2c1 | > 8.72 µM | > 8.72 µM | –
7 | CC(=O)Nc1cccc(/C(C)=N/n2c(-c3cccc([N+](=O)[O-])c3)cs/c2=N\c2c(C)cccc2C)c1 | 4.17 µM | – | IC50 (FFLUC_HILL_SLOPE 18.6, FFLUC_R_SQUARED 0.557, PBLUC_HILL_SLOPE 12.4, PBLUC_R_SQUARED 0.7, read-out: LUCIFERASE INFECTION ASSAY - IC50): 3.49 µM
8 | CC(C)(C)c1ccc(OS(=O)(=O)c2ccc(Oc3c(Cl)cccc3[N+](=O)[O-])cc2)cc1 | > 7.14 µM | > 7.14 µM | –
9 | CC1=C(C(=O)Nc2cc(C)on2)C(c2csc(-c3ccc(Cl)cc3)n2)NC(=S)N1C1CC1 (stereo not drawn) | 9.79 µM | – | IC50 (FFLUC_HILL_SLOPE 2.07, FFLUC_R_SQUARED 0.469, PBLUC_HILL_SLOPE 2.7, PBLUC_R_SQUARED 0.533, read-out: LUCIFERASE INFECTION ASSAY - IC50): 4.34 µM
10 | CNc1ccccc1C(C)(C)c1cc(-c2ccc(F)cc2)no1 | > 10 µM | 8.62 µM | –
11 | Cc1nn(-c2ccccc2)c2c1C(c1c[nH]c3ccccc13)N1C(=N2)C(N2CCN(c3ccc(F)cc3)CC2)=Nc2ccccc21 (stereo not drawn) | > 10 µM | > 10 µM | –
12 | c1ccc(CNc2nn3c(-c4ccccc4)cnc3s2)cc1 | 4.14 µM | – | IC50 (PBLUC_HILL_SLOPE 12.3, PBLUC_R_SQUARED 0.487, read-out: LUCIFERASE INFECTION ASSAY - IC50): 3.47 µM
13 | O=C(NC(CCCc1ccccc1)c1ccccc1)c1ccc(N2CCCS2(=O)=O)cc1 (stereo not drawn) | 5.73 µM | 5.56 µM | –
14 | O=C1C(=O)N(CN2CCc3sccc3C2c2ccccc2)c2ccc(F)cc21 (stereo not drawn) | 2.51 µM | – | IC50 (HEPG2TOX_HILL_SLOPE 2.62, HEPG2TOX_R_SQUARED 0.103, PBLUC_HILL_SLOPE 2.21, PBLUC_R_SQUARED 0.632, read-out: LUCIFERASE INFECTION ASSAY - IC50): 0.929 µM
15 | COc1ccc(C(=O)C2CCN(C(=O)C3CC(=O)N(c4ccc(C)c(F)c4)C3)CC2)cc1 (stereo not drawn) | > 10 µM | – | IC50 (PBLUC_HILL_SLOPE 15.1, PBLUC_R_SQUARED 0.128, read-out: LUCIFERASE INFECTION ASSAY - IC50): 9.94 µM
16 | CCOC(=O)c1cnc(SC(C)C(=O)Nc2nc(-c3ccccc3)cs2)nc1N (stereo not drawn) | > 10 µM | – | IC50 (HEPG2TOX_HILL_SLOPE 0.514, HEPG2TOX_R_SQUARED 0.73, PBLUC_HILL_SLOPE 0.707, PBLUC_R_SQUARED 0.324, read-out: LUCIFERASE INFECTION ASSAY - IC50): 4.44 µM
17 | CN(CCO)C(=O)Nc1sc2c(c1C(N)=O)CCC2 | > 11.6 µM | > 11.6 µM | –
18 | Cc1cccc(N2CCN(C(=O)c3cccc(OCc4c(C)noc4C)c3)CC2)c1C | > 10 µM | – | IC50 (HEPG2TOX_HILL_SLOPE 2.27, HEPG2TOX_R_SQUARED 0.832, PBLUC_HILL_SLOPE 9.75, PBLUC_R_SQUARED 0.237, read-out: LUCIFERASE INFECTION ASSAY - IC50): 9.51 µM
19 | C=CCNc1nc(C(=O)OCc2cc(=O)n3cc(Br)ccc3n2)cs1 | > 10 µM | > 10 µM | –
20 | C/C(=N\NC(=O)c1sc2ccccc2c1Cl)c1ccc(C(C)(C)C)cc1 | > 10 µM | – | IC50 (PBLUC_HILL_SLOPE 2.25, PBLUC_R_SQUARED 0.703, read-out: LUCIFERASE INFECTION ASSAY - IC50): 4.74 µM

Row | SMILES | IC90 | IC50 [1] | also measured
21 | O=c1c(Cl)c(Cl)cnn1-c1c(Cl)cc(C(F)(F)F)cc1Cl | 1.61 µM | – | IC50 (FFLUC_HILL_SLOPE 19, FFLUC_R_SQUARED 0.471, HEPG2TOX_HILL_SLOPE 2.99, HEPG2TOX_R_SQUARED 0.99, PBLUC_HILL_SLOPE 1.54, PBLUC_R_SQUARED 0.797, read-out: LUCIFERASE INFECTION ASSAY - IC50): 0.388 µM
22 | CC(C)(C)c1ccc(Oc2ccc(N)cn2)cc1 [LIMANTRAFIN] | > 13.6 µM | – | IC50 (PBLUC_HILL_SLOPE 0.71, PBLUC_R_SQUARED 0.895, read-out: LUCIFERASE INFECTION ASSAY - IC50): 1.19 µM
23 | CCCOc1ccc(S(=O)(=O)NC2CCCCC2)c2ccccc12 | 8.57 µM | – | IC50 (HEPG2TOX_HILL_SLOPE 9.17, HEPG2TOX_R_SQUARED 0.712, PBLUC_HILL_SLOPE 2.91, PBLUC_R_SQUARED 0.385, read-out: LUCIFERASE INFECTION ASSAY - IC50): 4.03 µM
24 | CN(C)c1c(/C=C2\C(=O)Nc3ccccc32)cc(/C=C2/C(=O)Nc3ccccc32)c(N(C)C)c1C#N | 4.13 µM | – | IC50 (FFLUC_HILL_SLOPE 3.06, FFLUC_R_SQUARED 0.454, HEPG2TOX_HILL_SLOPE 1.28, HEPG2TOX_R_SQUARED 0.858, PBLUC_HILL_SLOPE 2.4, PBLUC_R_SQUARED 0.768, read-out: LUCIFERASE INFECTION ASSAY - IC50): 1.65 µM
25 | CN(C)CCCN1C(=O)N(CCc2ccccc2)C2(CCN(Cc3cn(C)c4ccccc34)CC2)C1=O | 6.2 µM | – | IC50 (HEPG2TOX_HILL_SLOPE 17.2, HEPG2TOX_R_SQUARED 0.602, PBLUC_HILL_SLOPE 5.41, PBLUC_R_SQUARED 0.643, read-out: LUCIFERASE INFECTION ASSAY - IC50): 4.13 µM
26 | CSc1nnc(SC2=CC(=O)CC(c3ccccc3)C2)s1 (stereo not drawn) | > 9.87 µM | – | IC50 (FFLUC_HILL_SLOPE 1.55, FFLUC_R_SQUARED 0.208, HEPG2TOX_HILL_SLOPE 8.38, HEPG2TOX_R_SQUARED 0.886, read-out: LUCIFERASE INFECTION ASSAY - IC50): > 9.87 µM
27 | Cc1noc(C)c1NC(=O)Nc1cc(C(F)(F)F)cc(C(F)(F)F)c1 | > 8.99 µM | – | IC50 (FFLUC_HILL_SLOPE 4.67, FFLUC_R_SQUARED 0.129, HEPG2TOX_HILL_SLOPE 8.81, HEPG2TOX_R_SQUARED 0.655, PBLUC_HILL_SLOPE 1.82, PBLUC_R_SQUARED 0.142, read-out: LUCIFERASE INFECTION ASSAY - IC50): 4.81 µM
28 | CS(=O)(=O)c1sc(NC(=O)Nc2ccccc2Cl)c2ccccc12 | > 8.66 µM | > 8.66 µM | –
29 | CCc1nn2c(=O)cc(CSc3nnc(-c4cc(C)cc(C)c4)o3)nc2s1 | > 10 µM | > 10 µM | –
30 | CCOC(=O)c1c(C)[nH]c(C(=O)Nc2nc(-c3ccc(C4CCCCC4)cc3)cs2)c1C | 9.4 µM | – | IC50 (HEPG2TOX_HILL_SLOPE 12.2, HEPG2TOX_R_SQUARED 0.959, PBLUC_HILL_SLOPE 12.5, PBLUC_R_SQUARED 0.559, read-out: LUCIFERASE INFECTION ASSAY - IC50): 7.88 µM
31 | Cc1cc(C)c(C)c(S(=O)(=O)N2CCN(S(=O)(=O)c3ccc(C(C)C)cc3)CC2)c1C | > 10 µM | – | IC50 (PBLUC_HILL_SLOPE 10.5, PBLUC_R_SQUARED 0.247, read-out: LUCIFERASE INFECTION ASSAY - IC50): 8.75 µM
32 | Cn1cc(C(=O)c2ccccc2O)cc1-c1nc2ccccc2[nH]1 | 4.94 µM | – | IC50 (HEPG2TOX_HILL_SLOPE 8.08, HEPG2TOX_R_SQUARED 0.741, PBLUC_HILL_SLOPE 7.01, PBLUC_R_SQUARED 0.754, read-out: LUCIFERASE INFECTION ASSAY - IC50): 3.61 µM
33 | Oc1c(C(c2ccc(Cl)cc2Cl)N2CCOCC2)ccc2cccnc12 (stereo not drawn) | 8.77 µM | 4.36 µM | –
34 | COc1ccc(C(c2cc(Cl)c3cccnc3c2O)N2CCN(C)CC2)cc1 (stereo not drawn) | 3.38 µM | – | IC50 (FFLUC_HILL_SLOPE 2.4, FFLUC_R_SQUARED 0.862, HEPG2TOX_HILL_SLOPE 1.1, HEPG2TOX_R_SQUARED 0.743, PBLUC_HILL_SLOPE 15.9, PBLUC_R_SQUARED 0.801, read-out: LUCIFERASE INFECTION ASSAY - IC50): 2.95 µM
35 | CCC(C)NC(=O)c1c(NC(=O)c2cc(OC)cc(OC)c2)nc2ccc(C)cn12 (stereo not drawn) | 2.79 µM | – | IC50 (HEPG2TOX_HILL_SLOPE 2.24, HEPG2TOX_R_SQUARED 0.668, PBLUC_HILL_SLOPE 45.5, PBLUC_R_SQUARED 0.204, read-out: LUCIFERASE INFECTION ASSAY - IC50): 2.66 µM
36 | CN1CCN(/N=C/c2c(-c3ccccc3)n(-c3ccccc3)c3ccccc23)CC1 | > 10 µM | – | IC50 (PBLUC_HILL_SLOPE 15.1, PBLUC_R_SQUARED 0.218, read-out: LUCIFERASE INFECTION ASSAY - IC50): 9.13 µM
37 | Fc1ccc2c(c1)/C(=N\Nc1nc3ccccc3[nH]1)CCS2 | > 10 µM | – | IC50 (HEPG2TOX_HILL_SLOPE 6.62, HEPG2TOX_R_SQUARED 0.538, PBLUC_HILL_SLOPE 9.53, PBLUC_R_SQUARED 0.0234, read-out: LUCIFERASE INFECTION ASSAY - IC50): 8.49 µM
38 | O=C(Nc1cccc(Cl)c1)Nc1ccccc1SCc1ncc(C(F)(F)F)cc1Cl | > 6.99 µM | > 6.99 µM | –
39 | CC1=C(C#N)C(/C=N/N(C)c2ncc(C(F)(F)F)cc2Cl)CC(=O)N1 (stereo not drawn) | 3.84 µM | – | IC50 (HEPG2TOX_HILL_SLOPE 2.47, HEPG2TOX_R_SQUARED 0.965, PBLUC_HILL_SLOPE 13.6, PBLUC_R_SQUARED 0.0536, read-out: LUCIFERASE INFECTION ASSAY - IC50): 3.27 µM
